From US12643912B2, “Macrocyclic compounds, a process for their preparation and pharmaceutical compositions containing them” (LES LABORATOIRES SERVIER, priority 2020, dated 2026)
Where two headings read alike, the source gives them in different places.

Columns and labels:
[1] = test system: Nrf2 (Keap1-NRF2 nuclear translocation); experiment: U2OS translocation assay (PathHunter U2OS Keap1-NRF2 Nuclear Translocation Cell Line); format: cell-based
In short: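 Enzyme-fragment complementation read-out: luminescence after 60 min of detection reagent at room temperature, following a 3 h, 37° C compound exposure of engineered U2OS Keap1-NRF2 translocation cells (1% FBS medium). Signal scaled from 1% DMSO basal to 10 μM andrographolide maximum.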

Keap1 (A321-C624) (h) = target: T1, Keap1 (A321-C624) (h) (Homo sapiens, UniProt Q14145); experiment: Surface Plasmon Resonance binding assay to Kelch domain of KEAP1; details: Biacore T200, 25° C., immobilized His-Thromb-KEAP1(A321-C624), single cycle kinetics, KD=kd/ka from 1:1 fit; read-out: Keap1 (A321-C624) (h) direct/SPR (KD)
T1 construct: His-Thromb-KEAP1(A321-C624) acquired from Novalix (batch PU-P01) was immobilized covalently by amine coupling; His tag (N); thrombin cleavage site (Thromb) (N); purchased Novalix batch PU-P01
In short: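 His-Thromb-KEAP1(A321-C624) amine-coupled on CM5 chip to 1250 RU; amine blank reference. Run at 25° C in HEPES pH 7.4, 150 mM NaCl, 3 mM EDTA, 1 mM TCEP, 0.05% P20, 5% DMSO; 180 s association, 720 s dissociation, 50 μL/min. KD = kd/ka from 1:1 kinetic fit, double-referenced, DMSO solvent-corrected.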

[2] = read-out: CELLULAR U2OS EC50, U2OS Keap1-NRF2 nuclear translocation cells, 3 h incubation, luminescence, normalized between 1% DMSO and 10 μM andrographolide
[3] = Homo sapiens, U2OS, 3 h, read-out: CELLULAR U2OS EC50 (nM), U2OS Keap1-NRF2 nuclear translocation cells, 3 h incubation, luminescence, normalized between 1% DMSO and 10 μM andrographolide

T1 sequence (Q14145 321-624): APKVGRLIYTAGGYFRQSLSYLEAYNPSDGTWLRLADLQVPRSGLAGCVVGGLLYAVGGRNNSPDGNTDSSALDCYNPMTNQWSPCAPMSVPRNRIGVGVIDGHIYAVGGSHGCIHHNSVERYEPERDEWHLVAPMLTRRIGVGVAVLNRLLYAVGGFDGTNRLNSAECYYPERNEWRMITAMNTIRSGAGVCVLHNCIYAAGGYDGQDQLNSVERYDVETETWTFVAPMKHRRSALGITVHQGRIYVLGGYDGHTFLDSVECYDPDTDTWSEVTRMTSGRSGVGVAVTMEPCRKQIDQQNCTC

Compound	Kd (Keap1 (A321-C624) (h)) [nM]	EC50 [1, 2] [nM]	EC50 [1, 3] [nM]
Cc1ccc2cc1CN1Cc3c(ccc(c3Cl)OCCCCn3nnc4c(C)c(ccc43)C2CC(=O)O)OS1(=O)=O (single isomer, unassigned) [Example 66a, [30-Chloro-4,31-dimethyl-27,27-dioxo-21,26-dioxa-27λ^6-thia-1,14,15,16-tetraazahexacyclo[20.5.3.1^3,70.1^9,130.0^12,160.0^25,29]dotriaconta-3(32),4,6,9(31),10,12,14,22,24,29-decaen-8-yl]acetic acid]	0.678	3.44	–
Cc1ccc2cc1CN1Cc3c(ccc(c3Cl)OCCCCn3nnc4c(C)c(ccc43)C2CC(=O)O)OS1(=O)=O (single isomer, unassigned) [Example 66b, [30-Chloro-4,31-dimethyl-27,27-dioxo-21,26-dioxa-27λ^6-thia-1,14,15,16-tetraazahexacyclo[20.5.3.1^3,70.1^9,130.0^12,160.0^25,29]dotriaconta-3(32),4,6,9(31),10,12,14,22,24,29-decaen-8-yl]acetic acid]	0.833	17.9	–
Cc1ccc2cc1[C@@H](C)N1Cc3cc(ccc3OS1(=O)=O)OCCCCn1nnc3c(C)c(ccc31)[C@@H]2CC(=O)O [Example 3a, [(2R,8R)-2,4,31-Trimethyl-27,27-dioxo-21,26-dioxa-27λ^6-thia-1,14,15,16-tetraazahexacyclo[20.5.3.1^3,70.1^9,130.0^12,160.0^25,29]dotriaconta-3(32),4,6,9(31),10,12,14,22,24,29-decaen-8-yl]acetic acid]	7.64	–	79.5
Cc1ccc2cc1[C@@H](C)N1Cc3cc(ccc3OS1(=O)=O)OCCCCn1nnc3c(C)c(ccc31)[C@H]2CC(=O)O [Example 3b, [(2R,8S)-2,4,31-trimethyl-27,27-dioxo-21,26-dioxa-27λ^6-thia-1,14,15,16-tetraazahexacyclo[20.5.3.1^3,70.1^9,130.0^12,160.0^25,29]dotriaconta-3(32),4,6,9(31),10,12,14,22,24,29-decaen-8-yl]acetic acid]	1.05	–	10.6
Cc1c2ccc3c1nnn3CCCCOc1ccc3c(c1)CN(Cc1cc(F)cc(c1)C2CC(=O)O)S(=O)(=O)O3 (stereo not drawn) [Example 4, [5-Fluoro-31-methyl-27,27-dioxo-21,26-dioxa-27λ^6-thia-1,14,15,16-tetraazahexacyclo[20.5.3.1^3,70.1^9,130.0^12,160.0^25,29]dotriaconta-3(32),4,6,9(31),10,12,14,22,24,29-decaen-8-yl]acetic acid]	255	–	3470
Cc1cc2cc(c1)C(CC(=O)O)c1ccc3c(nnn3CCCCOc3ccc4c(c3)CN(C2)S(=O)(=O)O4)c1C (stereo not drawn) [Example 5, [5,31-Dimethyl-27,27-dioxo-21,26-dioxa-27λ^6-thia-1,14,15,16-tetraazahexacyclo[20.5.3.1^3,70.1^9,130.0^12,160.0^25,29]dotriaconta-3(32),4,6,9(31),10,12,14,22,24,29-decaen-8-yl]acetic acid]	131	–	1810
Cc1c2ccc3c1nnn3CCCCOc1ccc3c(c1)CN(Cc1cccc(c1)C2CC(=O)O)S(=O)(=O)O3 (stereo not drawn) [Example 6, [31-Methyl-27,27-dioxo-21,26-dioxa-27λ^6-thia-1,14,15,16-tetraazahexacyclo[20.5.3.1^3,70.1^9,130.0^12,160.0^25,29]dotriaconta-3(32),4,6,9(31),10,12,14,22,24,29-decaen-8-yl]acetic acid]	33.7	–	1330
Cc1ccc2cc1CN1Cc3cc(ccc3OS1(=O)=O)OCCCCn1nnc3c(C)c(ccc31)[C@H]2CC(=O)O [Example 7a, [(8S)-4,31-Dimethyl-27,27-dioxo-21,26-dioxa-27λ^6-thia-1,14,15,16-tetraazahexacyclo[20.5.3.1^3,70.1^9,130.0^12,160.0^25,29]dotriaconta-3(32),4,6,9(31),10,12,14,22,24,29-decaen-8-yl]acetic acid]	1.07	–	23
Cc1ccc2cc1CN1Cc3cc(ccc3OS1(=O)=O)OCCCCn1nnc3c(C)c(ccc31)[C@@H]2CC(=O)O [Example 7b, [(8R)-4,31-dimethyl-27,27-dioxo-21,26-dioxa-27λ^6-thia-1,14,15,16-tetraazahexacyclo[20.5.3.1^3,70.1^9,130.0^12,160.0^25,29]dotriaconta-3(32),4,6,9(31),10,12,14,22,24,29-decaen-8-yl]acetic acid]	4.86	–	290
Cc1c2ccc3c1nnn3CCCCOc1ccc3c(c1)CN(Cc1cc(ccc1F)C2CC(=O)O)S(=O)(=O)O3 (stereo not drawn) [Example 14, [4-Fluoro-31-methyl-27,27-dioxo-21,26-dioxa-27λ^6-thia-1,14,15,16-tetraazahexacyclo[20.5.3.1^3,70.1^9,130.0^12,160.0^25,29]dotriaconta-3(32),4,6,9(31),10,12,14,22,24,29-decaen-8-yl]acetic acid]	14.2	–	582
Cc1ccc2cc1[C@@H](C)N1Cc3cc(ccc3OS1(=O)=O)OCCCCCCn1nnc3c(C)c(ccc31)[C@@H]2CC(=O)O [Example 19a, [(2R,8R)-2,4,33-Trimethyl-29,29-dioxo-23,28-dioxa-29λ^6-thia-1,14,15,16-tetraazahexacyclo[22.5.3.1^3,70.1^9,130.0^12,160.0^27,31]tetratriaconta-3(34),4,6,9(33),10,12,14,24,26,31-decaen-8-yl]acetic acid]	1.34	–	73.6
Cc1ccc2cc1[C@@H](C)N1Cc3cc(ccc3OS1(=O)=O)OCCCCCCn1nnc3c(C)c(ccc31)[C@H]2CC(=O)O [Example 19b, [(2R,8S)-2,4,33-trimethyl-29,29-dioxo-23,28-dioxa-29λ^6-thia-1,14,15,16-tetraazahexacyclo[22.5.3.1^3,70.1^9,130.0^12,160.0^27,31]tetratriaconta-3(34),4,6,9(33),10,12,14,24,26,31-decaen-8-yl]acetic acid]	0.646	–	2.76
Cc1ccc2cc1[C@@H](C)N1Cc3cc(ccc3OS1(=O)=O)OCCCCCn1nnc3c(C)c(ccc31)[C@H]2CC(=O)O [Example 20a, [(2R,8S)-2,4,32-Trimethyl-28,28-dioxo-22,27-dioxa-28λ^6-thia-1,14,15,16-tetraazahexacyclo[21.5.3.1^3,70.1^9,130.0^12,160.0^26,30]tritriaconta-3(33),4,6,9(32),10,12,14,23,25,30-decaen-8-yl]acetic acid]	0.549	–	1.99

The next lines start with results.

Kd (Keap1 (A321-C624) (h)) [nM]	Compound	EC50 [1, 2] [nM]	EC50 [1, 3] [nM]
19.3	Cc1ccc2cc1CN1Cc3cc(ccc3OS1(=O)=O)Oc1ccccc1NCCCn1nnc3c(C)c(ccc31)C2CC(=O)O (single isomer, unassigned) [Example 71a, [4,37-Dimethyl-33,33-dioxo-27,32-dioxa-33λ^6-thia-1,14,15,16,20-pentaazaheptacyclo[26.5.3.1^3,70.1^9,130.0^12,160.0^21,260.0^31,35]octatriaconta-3(38),4,6,9(37),10,12,14,21,23,25,28,30,35-tridecaen-8-yl]acetic acid]	–	42
23.6	Cc1ccc2cc1CN1Cc3cc(ccc3OS1(=O)=O)OCCCCn1cc(nn1)C(=O)NC2CC(=O)O (single isomer, unassigned) [Example 72a, [4-Methyl-10,25,25-trioxo-19,24-dioxa-25λ^6-thia-1,9,12,13,14-pentaazapentacyclo[18.5.3.1^3,70.1^11,140.0^23,27]triaconta-3(30),4,6,11(29),12,20,22,27-octaen-8-yl]acetic acid]	–	> 3160
730	Cc1ccc2cc1CN1Cc3cc(ccc3OS1(=O)=O)OCCCCn1cc(nn1)C(=O)NC2CC(=O)O (single isomer, unassigned) [Example 72b, [4-Methyl-10,25,25-trioxo-19,24-dioxa-25λ^6-thia-1,9,12,13,14-pentaazapentacyclo[18.5.3.1^3,70.1^11,140.0^23,27]triaconta-3(30),4,6,11(29),12,20,22,27-octaen-8-yl]acetic acid]	> 3160	–
6.23	Cc1ccc2cc1CN1Cc3cc(ccc3OS1(=O)=O)OCCCCCOc1cc(c(C)c3nnn(C)c13)C2CC(=O)O (single isomer, unassigned) [Example 73a, [4,10,14-Trimethyl-29,29-dioxo-17,23,28-trioxa-29λ^6-thia-1,12,13,14-tetraazahexacyclo[22.5.3.1^3,70.1^9,160.0^11,150.0^27,31]tetratriaconta-3(34),4,6,9(33),10,12,15,24,26,31-decaen-8-yl]acetic acid]	63.4	–
17.6	Cc1ccc2cc1CN1Cc3cc(ccc3OS1(=O)=O)OCCCCCOc1cc(c(C)c3nnn(C)c13)C2CC(=O)O (single isomer, unassigned) [Example 73b, [4,10,14-Trimethyl-29,29-dioxo-17,23,28-trioxa-29λ^6-thia-1,12,13,14-tetraazahexacyclo[22.5.3.1^3,70.1^9,160.0^11,150.0^27,31]tetratriaconta-3(34),4,6,9(33),10,12,15,24,26,31-decaen-8-yl]acetic acid]	707	–
